PubChem BioAssay AID1963827 (Molecular Pharmacology Branch, DTP, NCI, 2024)

System: 994946-033-R-J1-PDC complex spheroid viability
Assay: Anticancer human tumor 994946-033-R-J1-PDC patient-derived melanoma cell line growth inhibition [POLQ]
Settings: for IC50: curve of first compound; for viability, T/C: stronger effect = lower value
Procedure, shortened: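 PDC + HUVEC + MSC complex spheroids; POLQ inhibitors ± partner drugs; top conc. at/near clinical Cmax, else 10 microM (SN-38 1 microM), half-log dilutions; 37 degrees C, 5% CO2.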

[1] = second compound 0.0316 µM, first compound 0.0316 µM
[2] = second compound 0.0316 µM, first compound 0.1 µM
[3] = second compound 0.0316 µM, first compound 0.316 µM
[4] = second compound 0.0316 µM, first compound 1 µM
[5] = second compound 0.0316 µM, first compound 3.16 µM
[6] = second compound 0.0316 µM, first compound 10 µM
[7] = second compound 0.1 µM, first compound 0.0316 µM
[8] = second compound 0.1 µM, first compound 0.1 µM
[9] = second compound 0.1 µM, first compound 0.316 µM
[10] = second compound 0.1 µM, first compound 1 µM
[11] = second compound 0.1 µM, first compound 3.16 µM
[12] = second compound 0.1 µM, first compound 10 µM
[13] = second compound 0.316 µM, first compound 0.0316 µM
[14] = second compound 0.316 µM, first compound 0.1 µM
[15] = second compound 0.316 µM, first compound 0.316 µM
[16] = second compound 0.316 µM, first compound 1 µM
[17] = second compound 0.316 µM, first compound 3.16 µM
[18] = second compound 0.316 µM, first compound 10 µM
[19] = second compound 1 µM, first compound 0.0316 µM
[20] = second compound 1 µM, first compound 0.1 µM
[21] = second compound 1 µM, first compound 0.316 µM
[22] = second compound 1 µM, first compound 1 µM
[23] = second compound 1 µM, first compound 3.16 µM
[24] = second compound 1 µM, first compound 10 µM
[25] = second compound 3.16 µM, first compound 0.0316 µM
[26] = second compound 3.16 µM, first compound 0.1 µM
[27] = second compound 3.16 µM, first compound 0.316 µM
[28] = second compound 3.16 µM, first compound 1 µM
[29] = second compound 3.16 µM, first compound 3.16 µM
[30] = second compound 3.16 µM, first compound 10 µM
[31] = second compound 10 µM, first compound 0.0316 µM
[32] = second compound 10 µM, first compound 0.1 µM
[33] = second compound 10 µM, first compound 0.316 µM
[34] = second compound 10 µM, first compound 1 µM
[35] = second compound 10 µM, first compound 3.16 µM
[36] = second compound 10 µM, first compound 10 µM
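Also: spheroids exposed to drugs for 7 days.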
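For viability, T/C in this document: 100% = DMSO vehicle treated spheroids.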

CC(C)n1c(=O)n(C)c2cnc3cc(F)c(-c4ccc(OCCCN5CCCCC5)nc4)cc3c21 + Cc1cccc(N(C)C(=O)C2C(O)CCN2c2nc(C)cc(C(F)(F)F)c2C#N)c1
IC50 (second compound 0.0316 µM): 6.24 µM
IC50 (second compound 0.1 µM): 4.69 µM
IC50 (second compound 0.316 µM): 5.46 µM
IC50 (second compound 1 µM): 5.62 µM
IC50 (second compound 3.16 µM): 6.62 µM
IC50 (second compound 10 µM): 4.14 µM
viability, T/C [1]: 97.3%
viability, T/C [2]: 97.6%
viability, T/C [3]: 87.2%
viability, T/C [4]: 74.2%
viability, T/C [5]: 71.4%
viability, T/C [6]: 37.8%
viability, T/C [7]: 92.1%
viability, T/C [8]: 67.6%
viability, T/C [9]: 75.8%
viability, T/C [10]: 62.5%
viability, T/C [11]: 69.3%
viability, T/C [12]: 23.8%
viability, T/C [13]: 82.5%
viability, T/C [14]: 117%
viability, T/C [15]: 87.9%
viability, T/C [16]: 93.6%
viability, T/C [17]: 84.5%
viability, T/C [18]: 11.8%
viability, T/C [19]: 97%
viability, T/C [20]: 81%
viability, T/C [21]: 94%
viability, T/C [22]: 93.6%
viability, T/C [23]: 83.5%
viability, T/C [24]: 16.3%
viability, T/C [25]: 94.8%
viability, T/C [26]: 62.2%
viability, T/C [27]: 94.4%
viability, T/C [28]: 90.7%
viability, T/C [29]: 92%
viability, T/C [30]: 29.4%
viability, T/C [31]: 109%
viability, T/C [32]: 92.6%
viability, T/C [33]: 93.2%
viability, T/C [34]: 74.7%
viability, T/C [35]: 63.2%
viability, T/C [36]: 22.3%

CNCc1ccc(-c2[nH]c3cc(F)cc4c3c2CCNC4=O)cc1 + Nc1ccc(C#CCN(C(=O)Cc2ncc(C(F)(F)F)cc2C(F)(F)F)c2ccc(F)cc2)nn1
IC50 (second compound 0.0316 µM): > 10 µM
IC50 (second compound 0.1 µM): > 10 µM
IC50 (second compound 0.316 µM): > 10 µM
IC50 (second compound 1 µM): > 10 µM
IC50 (second compound 3.16 µM): > 10 µM
IC50 (second compound 10 µM): > 10 µM
viability, T/C [1]: 97.4%
viability, T/C [2]: 84.1%
viability, T/C [3]: 84%
viability, T/C [4]: 85.3%
viability, T/C [5]: 94.5%
viability, T/C [6]: 79%
viability, T/C [7]: 77.9%
viability, T/C [8]: 83.1%
viability, T/C [9]: 99.7%
viability, T/C [10]: 61.5%
viability, T/C [11]: 95.8%
viability, T/C [12]: 70.6%
viability, T/C [13]: 81.7%
viability, T/C [14]: 86.4%
viability, T/C [15]: 90%
viability, T/C [16]: 68.8%
viability, T/C [17]: 77.2%
viability, T/C [18]: 69.1%
viability, T/C [19]: 73.4%
viability, T/C [20]: 69.2%
viability, T/C [21]: 107%
viability, T/C [22]: 77.9%
viability, T/C [23]: 103%
viability, T/C [24]: 63.1%
viability, T/C [25]: 105%
viability, T/C [26]: 105%
viability, T/C [27]: 85%
viability, T/C [28]: 107%
viability, T/C [29]: 74.2%
viability, T/C [30]: 77.5%
viability, T/C [31]: 72%
viability, T/C [32]: 74.2%
viability, T/C [33]: 88.7%
viability, T/C [34]: 113%
viability, T/C [35]: 96%
viability, T/C [36]: 78.3%

COc1cc2cc(C(=O)CCC(=O)O)sc2cc1OC + Cc1cccc(N(C)C(=O)C2C(O)CCN2c2nc(C)cc(C(F)(F)F)c2C#N)c1
IC50 (second compound 0.0316 µM): > 10 µM
IC50 (second compound 0.1 µM): > 10 µM
IC50 (second compound 0.316 µM): > 10 µM
IC50 (second compound 1 µM): > 10 µM
IC50 (second compound 3.16 µM): > 10 µM
IC50 (second compound 10 µM): > 10 µM
viability, T/C [1]: 79.5%
viability, T/C [2]: 96.4%
viability, T/C [3]: 130%
viability, T/C [4]: 74.9%
viability, T/C [5]: 91%
viability, T/C [6]: 82.3%
viability, T/C [7]: 116%
viability, T/C [8]: 91.4%
viability, T/C [9]: 102%
viability, T/C [10]: 88.5%
viability, T/C [11]: 98.8%
viability, T/C [12]: 92.8%
viability, T/C [13]: 67.7%
viability, T/C [14]: 96.1%
viability, T/C [15]: 70.5%
viability, T/C [16]: 88.2%
viability, T/C [17]: 79.7%
viability, T/C [18]: 84.3%
viability, T/C [19]: 67.6%
viability, T/C [20]: 86.9%
viability, T/C [21]: 72.9%
viability, T/C [22]: 103%
viability, T/C [23]: 72.3%
viability, T/C [24]: 80.9%
viability, T/C [25]: 120%
viability, T/C [26]: 93.4%
viability, T/C [27]: 101%
viability, T/C [28]: 94.4%
viability, T/C [29]: 110%
viability, T/C [30]: 94.1%
viability, T/C [31]: 97.6%
viability, T/C [32]: 94.4%
viability, T/C [33]: 92.9%
viability, T/C [34]: 86.3%
viability, T/C [35]: 87.8%
viability, T/C [36]: 76.7%

Cn1ncnc1[C@H]1c2n[nH]c(=O)c3cc(F)cc(c23)N[C@@H]1c1ccc(F)cc1 + Cc1cccc(N(C)C(=O)C2C(O)CCN2c2nc(C)cc(C(F)(F)F)c2C#N)c1
IC50 (second compound 0.0316 µM): > 0.1 µM
IC50 (second compound 0.1 µM): > 0.1 µM
IC50 (second compound 0.316 µM): > 0.1 µM
IC50 (second compound 1 µM): > 0.1 µM
IC50 (second compound 3.16 µM): > 0.1 µM
IC50 (second compound 10 µM): > 0.1 µM
viability, T/C (second compound 0.0316 µM, first compound 0.000316 µM): 105%
viability, T/C (second compound 0.0316 µM, first compound 0.001 µM): 85.7%
viability, T/C (second compound 0.0316 µM, first compound 0.00316 µM): 86.8%
viability, T/C (second compound 0.0316 µM, first compound 0.01 µM): 77.2%
viability, T/C [1]: 87.7%
viability, T/C [2]: 75.1%
viability, T/C (second compound 0.1 µM, first compound 0.000316 µM): 81.5%
viability, T/C (second compound 0.1 µM, first compound 0.001 µM): 107%
viability, T/C (second compound 0.1 µM, first compound 0.00316 µM): 78.3%
viability, T/C (second compound 0.1 µM, first compound 0.01 µM): 87.8%
viability, T/C [7]: 88.3%
viability, T/C [8]: 64.2%
viability, T/C (second compound 0.316 µM, first compound 0.000316 µM): 115%
viability, T/C (second compound 0.316 µM, first compound 0.001 µM): 118%
viability, T/C (second compound 0.316 µM, first compound 0.00316 µM): 77.8%
viability, T/C (second compound 0.316 µM, first compound 0.01 µM): 99.2%
viability, T/C [13]: 74.8%
viability, T/C [14]: 56%
viability, T/C (second compound 1 µM, first compound 0.000316 µM): 134%
viability, T/C (second compound 1 µM, first compound 0.001 µM): 91%
viability, T/C (second compound 1 µM, first compound 0.00316 µM): 95.9%
viability, T/C (second compound 1 µM, first compound 0.01 µM): 80.2%
viability, T/C [19]: 76.9%
viability, T/C [20]: 66.9%
viability, T/C (second compound 3.16 µM, first compound 0.000316 µM): 111%
viability, T/C (second compound 3.16 µM, first compound 0.001 µM): 111%
viability, T/C (second compound 3.16 µM, first compound 0.00316 µM): 98%
viability, T/C (second compound 3.16 µM, first compound 0.01 µM): 76%
viability, T/C [25]: 87.3%
viability, T/C [26]: 78.7%
viability, T/C (second compound 10 µM, first compound 0.000316 µM): 109%
viability, T/C (second compound 10 µM, first compound 0.001 µM): 65%
viability, T/C (second compound 10 µM, first compound 0.00316 µM): 95.7%
viability, T/C (second compound 10 µM, first compound 0.01 µM): 106%
viability, T/C [31]: 74.8%
viability, T/C [32]: 69.3%
